Tests used:
Type in all cases: cell-based
[1] = tested on: human alveolar basal epithelial adenocarcinoma cells, A549; assay: Multipolarity-inducing activity assay 3 (A549 cells synchronized in G2 phase (or M phase)); settings: 10 μM peptide, number of M-phase cells 100
Protocol: Some of the sample peptides obtained in Example 1 were tested for multipolarity-inducing activity against target cultured tumor cells. As the tumor cells tested, cells forming a […] (human alveolar basal epithelial adenocarcinoma cells, A549) were used. The cell line was cultured in the same manner as Example 2 described above. The resulting cultured tumor cells were synchronized in the G2 phase (or M phase) in the same manner as Example 3 described above. Similarly to Examples 2 and 3 described above (the number of M-phase cells was 100 herein), the presence of multipolarity was observed by immunofluorescence under fluorescence microscope.

[2] = tested on: HeLa cell line (HeLa S3); assay: Multipolarity-inducing activity assay 1 (cells synchronized in G1 phase by double thymidine block); settings: 10 μM peptide, 6 hours incubation; for Multipolar level (%): % multipolar cells relative to M-phase cells; for Number of multipolar cells: count among the M-phase cells observed
Protocol: Some of the sample peptides obtained in Example 1 were tested for multipolarity-inducing activity against target cultured tumor cells. Details of the assay are as described below.
As the tumor cells tested, a HeLa cell line (HeLa S3) was used. The cell line was cultured beforehand in a DMEM medium (i.e. Dulbecco MEM medium (DMEM medium, a Gibco product) containing 10% fetal bovine serum (FBS, a Gibco product), 2 mM of L-glutamine, 50 unit/mL of penicillin, and 50 μg/mL of streptomycin), and seeded at about 3×10^4 cells per well in an 8-well slide glass. Thymidine was added to the culture medium to a final concentration of 2.5 mM. Incubation was carried out at 37° C. under 5% CO2 for 16 hours. The culture medium was exchanged to remove thymidine and incubation was carried out for 8 more hours. Subsequently, thymidine was added again to a final concentration of 2.5 mM and incubation was carried out for 16 hours.
By such double thymidine block, the cells being cultured were synchronized in the G1 phase of the cell cycle. After such synchronization treatment, the culture medium was exchanged to remove thymidine and incubation was carried out for 2 more hours. Subsequently, one of the sample peptides was added to each well. In this example, one of Samples 1, 4, 5, 7, 9 and 11 was added to a peptide concentration in the well of 10 μM.
After a sample peptide was added as described above, the 8-well slid glass was incubated under the aforementioned conditions for 6 hours.
After 6 hours of incubation, the presence of multipolarity was observed by immunofluorescence under fluorescence microscope. In particular, after 6 hours of incubation following the addition of a sample peptide, the cultured cells were subjected to nuclear staining with DAPI (4′,6-diamidino-2-phenylindole), and using α-tubulin as a marker for spindles, the cells were tested for the presence of tubulin (i.e. the presence of spindles) by immunofluorescence with an anti-tubulin antibody (primary antibody) to identify the tubulin and a fluorescent dye (ALEXA FLUOR(registered trademark) 555)-labeled secondary antibody to identify the primary antibody. In addition, using centrin-2 as a marker for centrosomes (centrioles), the cells were tested for the presence of centrin-2 (i.e. the presence of centrosomes) by immunofluorescence with an anti-centrin-2 antibody (primary antibody) to identify the centrin-2 and a fluorescent dye-labeled secondary antibody to identify the primary antibody.

[3] = tested on: HeLa cell line (HeLa S3); assay: Multipolarity-inducing activity assay 2 (cells synchronized in G2 phase (or M phase) by nocodazole); settings: 10 μM peptide, 4 hours with peptide + 2 hours without; for Multipolar level (%): % multipolar cells relative to M-phase cells; for Number of multipolar cells: count among 60 M-phase cells
Protocol: The same sample peptides as those used in Example 2 above were used and tested for multipolarity-inducing activity against cultured tumor cells synchronized in the G2 phase (or M phase). Details of the assay are as described below.
As the tumor cells tested, a HeLa cell line (HeLa S3) was used. The cell line was cultured under the same conditions as Example 2 and seeded at about 3×10^4 cells per well in an 8-well slide glass. Thymidine was added to the culture medium to a final concentration of 2.5 mM. Incubation was carried out at 37° C. under 5% CO2 for 18 hours. The culture medium was exchanged to remove thymidine and incubation was carried out for 6 more hours. Subsequently, nocodazole was added to a final concentration of 0.1 μg/mL and incubation was carried out for 16 hours. By such addition of nocodazole, the cells being cultured were synchronized in the G2 phase (M phase) of the cell cycle.
After the 16 hours of incubation, without exchanging the culture medium (i.e. with nocodazole being contained), one of the sample peptides was added to each well to a peptide concentration in the well of 10 μM and incubation was carried out for 4 hours. Subsequently, the culture medium was exchanged and incubation was continued for 2 more hours without nocodazole or the sample peptide.
After the 2 hours of incubation, in the same manner as Example 2, the presence of multipolarity was observed by immunofluorescence under fluorescence microscope.

Sequence	Multipolar level (%) [1] [%]	Multipolar level (%) [2] [%]	Number of multipolar cells [2]	Multipolar level (%) [3] [%]	Number of multipolar cells [3]
QSPVNHHYHYHI [Sample 5]	34	10.8	12	41.7	25
GPHLGMNQRRRP [Sample 9]	27	10.4	11	55.0	33
EFEYFHPATFRL [Sample 8]	26				
NMTTYPMHNNTVKKRTLRKNDRKKR [Sample 16]	33				
SVSVGMKPSPRP [Sample 1]	30	11.5	12	40.0	24
NMTTYPMHNNTV [Sample 6]	32				
GAVTYSRISGQY [Sample 10]	29				
TPSLPPTMFRLT [Sample 3]	32				
SLLPHSNHAKHY [Sample 7]	28	13.0	13	43.3	26
SVSVGMKPSPRPKKRTLRKNDRKKR [Sample 11]	32	12.7	13	41.7	25
GPHHYWYHLRLP [Sample 4]	28	13.6	14	48.3	29
